{
  "source": "patent US20220323471A1",
  "about": "(priority 2019, published 2022)",
  "key": {"SARS-CoV-2-GFP": {"test_system": "SARS-CoV-2-GFP", "assay_type": "cell-based"}, "[1]": {"test_system": "HT1080, CHME3, VERO cells", "experiment": "MTT cell viability assay", "assay_type": "cell-based, human and monkey", "settings": "human or monkey cells (HT1080, CHME3, VERO); 48 hours", "procedure": "Cell viability was determined by measuring the reduction of the tetrazolium dye MTT [3-(4,5-dimethylthiazol-2-yl)-2,5-diphenyltetrazolium bromide] to its insoluble form formazan. We treated 4×10^3 cells/well in a 96-well plate with serial dilutions of the indicated drugs. Human and monkey cells were incubated with DGP, diphyllin, or 6-deoxy-D-glucose for 48 hours at 37° C. After the incubation period, 10 μl MTT solution (5 mg/mL) was added to each well for an additional 4 hours at 37° C. Finally, the media was removed and dimethyl sulfoxide was added (200 μl/well) according to the manufacturer's instructions. The optical density was measured at 570 nm using a microplate reader. Experiments were performed in triplicates and standard deviations are shown. Mock-treated cells represent 100% viability."}, "DENV1-RVP": {"test_system": "DENV1-RVP", "assay_type": "cell-based, dengue virus", "settings": "VERO cells; DGP 1 μM; NH4Cl 20 mM"}, "JEV-RVP": {"test_system": "JEV-RVP", "assay_type": "cell-based, Japanese encephalitis virus", "settings": "VERO cells; DGP 1 μM; NH4Cl 20 mM"}, "ZIKV strain MR766": {"test_system": "ZIKV strain MR766", "experiment": "In situ (+)-ZIKV RNA hybridization in VERO cells", "assay_type": "cell-based, Zika virus", "settings": "MOI 0.5, 1 μM, 48 hours", "procedure": "To determine the ZIKV life cycle stage at which DGP acts, two approaches were used to measure the production of viral RNA: 1) In situ hybridization to image viral RNA by using fluorescent probes, and 2) Reverse transcription PCR (qRT-PCR) to quantify viral RNA. […] At 48 hours post-infection, cells were fixed/permeabilized and ZIKV positive-strand RNA and detected by in situ hybridization using a specific fluorescently labeled negative-strand probe (green) and cell nuclei were stained using 4%6-diamidino-2-phenylindole (DAPI; blue). Twenty-five random images were captured for each treatment (Mock, ZIKV MR766, and ZIKV MR766+DGP 1 μM). To quantify the extent of infection, 400 cells per treatment were randomly counted and the percentage of infected (green) cells were calculated.\nZIKV RNA in cultured adherent cells was probed using the RNAscope reagents and protocol (Advanced Cell Diagnostics) (Wang, F. et al. 2012, “RNAscope: a novel in situ RNA analysis platform for formalin-fixed, paraffin-embedded tissues.” J Mol Diagn 14(1): 22-29) with some modifications as previously described (Puray-Chavez, M. 2017, “Multiplex single-cell visualization of nucleic acids and protein during HIV infection.” Nat Commun 8(1): 1882. Fixed cells on coverslips were washed twice with PBS, then incubated with 0.1% Tween-20 in PBS (PBS-T) for 10 min at room temperature (RT) and washed in PBS for 1 min. […]"}},
  "note": "“Also recorded” adds a separate entry of the source.",
  "data": [
    {"smiles": "COc1cc2c(OC3OC(C)C(O)C(O)C3O)c3c(c(-c4ccc5c(c4)OCO5)c2cc1OC)C(=O)OC3", "note": "(stereo not drawn) [DGP, 6-deoxyglucose-diphyllin]", "values": [
      {"measurement": "concentration sufficient to potently block the entry of SARS-CoV-2-GFP", "setting": "SARS-CoV-2-GFP", "value": 0.25, "unit": "µM"},
      {"measurement": "toxicity at concentrations required to inhibit ZIKV infection (MTT)", "setting": "[1]", "value": "non-toxic; also recorded: not toxic"},
      {"measurement": "DENV1 RVP infection", "setting": "DENV1-RVP", "value": "almost undetectable"},
      {"measurement": "JEV RVP infection", "setting": "JEV-RVP", "value": "almost undetectable"},
      {"measurement": "% Infected Cells", "setting": "ZIKV strain MR766", "value": 3.05, "unit": "%"},
      {"measurement": "Infected Cells (Green)", "setting": "ZIKV strain MR766; of 400 cells counted", "value": 12}
    ]}
  ]
}
